Row | Compound | melting point [°C]
1 | Cc1oc(-c2ccccc2)nc1CCOc1ccc(C[C@H](NC(=O)C=Cc2ccc(F)cc2)C(=O)O)cc1 | 188 to 190
2 | CCCCOCCOc1ccc(-c2ccc3c(c2)C=C(C(=O)O)CCN3c2ccc(S(N)(=O)=O)cc2)cc1 | 185 to 195
3 | CCCC(SCC(=O)O)c1cc2c(cc1C)OCO2 (centres undefined) | 77.5 to 78
4 | Cc1ccc(OC2SCC(O)C(O)C2O)c(-c2ccncc2)n1 (centres undefined) | 196 to 200
5 | CCC(=O)c1ccc(OC)c(Cl)c1Cl | 51 to 54
6 | Nc1ccc2c(cnn2Cc2cccc(F)c2)c1 | 130
7 | Clc1nc(-c2ccco2)c2ncn(Cc3ccc(Cl)c(Cl)c3)c2n1 | 191 to 193
8 | COc1ccccc1-c1ccc2ccc(N)nc2n1 | 182
9 | CCOC(=O)CNCc1c(N)ccc(N2CCCC2)c1Cl | 69 to 70
10 | O=C(O)c1cc(COc2ccccc2)cc(Cn2cc(C3c4ccccc4C=Cc4ccccc43)c(=S)[nH]c2=O)c1 | 160 to 165
11 | COC(=O)C1=Cc2cc(OCc3ccc(Cl)cc3)ccc2S(=O)(=O)CC1 | 130 to 133
12 | CC(C)NC(=O)c1c(NC(=O)c2cc(C(F)(F)F)nn2-c2ncccc2Cl)c(C#N)cc2cn[nH]c12 | 226 to 229
13 | CSc1nnc(-c2cc3c(Oc4ccc(Cl)cc4)cncc3s2)o1 | 158 to 160
14 | CC(=O)Nc1cc([N+](=O)[O-])c(C(=O)O)c([N+](=O)[O-])c1O | 199 to 203
15 | COc1ccc(C)cc1NC(=O)Nc1ccc(N2CCN(C(=O)Nc3ccc(NC(C)=O)cc3Cl)CC2)cc1 | 155 to 157
16 | CC(C)C(c1cccc(NC(=O)OCc2ccccc2)c1)c1c(O)c2c(oc1=O)CCCCCC2 (centres undefined) | 96 to 101
17 | CCOC(=O)Nc1cc(C(C)C(O)(Cn2cncn2)c2ccc(F)cc2F)ccn1 (centres undefined) | 177 to 179
18 | CSCCn1c2ccc(C)cc2c(=O)c2c1cnn2C | 125
19 | O=c1ccc2cc(C(c3ccccc3)n3ccnc3)ccc2[nH]1 (centres undefined) | 227
20 | CCCCOc1ncc(C(C)=O)cc1-c1nc2c(CC)n(C3CN(CC)C3)nc2c(=O)[nH]1 | 143 to 144
21 | COC(=O)[C@@H]1C[C@H](NS(C)(=O)=O)C(=O)[C@H]2[C@@]1(C)CC[C@H]1C(=O)O[C@H](c3ccoc3)C[C@]21C | 262 to 265
22 | CCCCC(C(=O)OCC)S(=O)(=O)c1ccc(OC)cc1 (centres undefined) | 62
23 | O=C(NCCCc1ccncc1)N(CCCc1ccccc1)C(c1ccccc1)c1ccccc1 | 123 to 125
24 | CN1CCN(c2nc(Oc3ccccc3)c3ccccc3n2)CC1 | 102 to 103
25 | CC(=O)N1CCN=C1Nc1cc(C)nn1-c1ccc(F)cc1 | 189 to 191

Row | Compound | melting point [°C]
26 | COc1cc(COc2nn(-c3ccccc3)cc2/C=C/c2cncn2C)ccc1OCc1nc(-c2ccco2)oc1C | 144 to 145
27 | COc1ccc(-n2cc(C)cc2-c2ccc(S(C)(=O)=O)cc2)cc1 | 154 to 160
28 | COc1ccc(NN=C(Sc2ccc(Cl)cc2)C(C)=O)cc1 | 112 to 114
29 | CCCN1C(=O)C(C(=O)Nc2ccc(Cl)cc2)S(=O)(=O)c2ccccc21 (centres undefined) | 189 to 190
30 | COc1ccc2[nH]c3c(c2c1)CCSc1ccccc1-3 | 151 to 154
31 | Cc1cc(C#N)cn2cc(-c3cccc(Br)c3)nc12 | 168 to 170
32 | CC(C)(C)OC(=O)N[C@@H](Cc1ccccc1)C(=O)C=[N+]=[N-] | 87 to 90
33 | Cc1cnc2c(S(=O)(=O)N[C@@H](CCCc3cn(C(c4ccccc4)(c4ccccc4)c4ccccc4)cn3)C(=O)OC(C)(C)C)cccc2c1 | 56
34 | C=CCOc1ccc(-c2ccc(O)cc2)cc1 | 168 to 170
35 | COc1ccc(N2CCCN(/C(C)=C(/C#N)C(N)=S)CC2)cc1 | 157 to 158
36 | CN1CCn2nc(Nc3cc(-c4cccc(N5Cc6cc(N(C)C)ccc6C5=O)c4CO)cn(C)c3=O)cc2C1 | 148 to 150
37 | O=C(O)C1=C(c2ccccc2)C(c2ccccc2)OC1=O (centres undefined) | 116 to 117
38 | O=C1c2c(-c3ccccc3)noc2CCC1CCCN1CCCCC1 (centres undefined) | 91.5 to 93.5
39 | COc1ccc(-c2nc(NC(=O)c3cccnc3)sc2-c2ccnc(NC(=O)c3cccnc3)c2)cc1 | 229 to 232
40 | CCCc1nn2ncc(C(=O)OCC)c2n1Cc1ccc(-c2ccccc2-c2nnnn2C(c2ccccc2)(c2ccccc2)c2ccccc2)cc1 | 106 to 108
41 | CCCCCCCCCCc1ccnc(C(=O)NCC(=O)O)c1 | 79 to 81
42 | CC(C)(C)OC(=O)N[C@H](CC(=O)OCc1ccccc1)C(=O)N[C@H](CO)Cc1ccccc1 | 94 to 95
43 | CC(=O)Nc1cc(Oc2ccc3c(C(=O)Nc4cc(-n5cnc(C)c5)cc(C(F)(F)F)c4)cccc3c2)ncn1 | 291 to 293
44 | O=C(CN(C(=O)OCc1ccccc1)c1ccc(Cl)cc1)NCCc1ccc(OCc2ccccc2)c(OCc2ccccc2)c1 | 114 to 116
45 | CC(C)(C)OC(=O)NC[C@H]1CN(c2ccc3c(c2)CN(C(=O)OCc2ccccc2)CC3)C(=O)O1 | 135 to 137
46 | O=C(c1cccs1)c1cnn2c(-c3cccc(-c4ccn(CCN5CCCC5)n4)c3)ccnc12 | 63
47 | Nc1nc(Cl)cnc1-c1cc(Cl)cc(Cl)c1Cl | 211 to 214
48 | COC(=O)c1cn(Cc2ccccc2)c2ccc(C3CCCCC3)cc2c1=O | 211 to 213
49 | COc1ccc2c3c([nH]c2c1)C(=O)C(CC1CCN(C(=O)OC(C)(C)C)CC1)C3 (centres undefined) | 192 to 193

— a melting point compilation (Tetko et al.; mined from patent text by program, amines drawn as free bases though some values may be those of a salt)
